Test results as given in patent US20230190867A1, “METHODS OF TREATING NASH AND COMPOSITIONS THEREFORE” (BIOINCEPT, LLC, priority 2018, published 2023).

Tests used:
[1] = tested on: Kv flux; type: cell-based; set-up: Effectiveness: scale not given here; conditions: for Effectiveness / Kv flux 100% in nt (stimulus buffer only): conc. 0.625 uM; for K+ inhibition as compared with sPIF: dose comparison analysis
Procedure: Currently, effective immunomodulatory agents, with minimal side effects, that can regulate inflammation in the liver to promote liver health in the setting of chronic liver disease have not been developed and they are desperately needed. […] In addition, the effect of TxpIC on these cells were tested This is a potent chemical mimicking viarl infection in the liver.

[2] = tested on: HepaRG cells induced by TxpIC; experiment: Inflammatory gene expression in TxpIC-induced HepaRG cells (real-time PCR); type: cell-based, human; conditions: TxpIC 500 ng/ml
Excerpt: Methods Primary human hepatocytes (PHHs) and HepaRG™ cells were studied. The later are terminally differentiated hepatic cells derived from a human hepatic progenitor cell line that retains many characteristics of primary human hepatocytes were purchased from Thermo Fisher Scientific Inc. (MA, USA). PHHs were also obtained from Dr. David Geller, at the University of Pittsburgh, through the NIH funded Liver Tissue and Cell Distribution System (LTCDS) and maintained in Williams E Medium containing cell maintenance supplement reagents from Invitrogen (Carlsbad, Calif.). The HCV JFH strain was used in cell culture experiments at an M.O.I. of 0.5-1. […] In other experiments TxpIC at 500 ng/ml were added to the cells. […] Fluorescence real-time PCR analysis was preformed using an ABI 7500 instrument (Applied Biosystems, Foster City, Calif.) and TaqMan gene expression assay (Applied Biosystems). Relative amounts of mRNA, determined using a FAM-Labeled TaqMan Probe, were normalized to the 18S ribosomal RNA levels in each PCR reaction using the eukaryotic 18S rRNA endogenous control from ABI (VIC/MGB Probe, Primer Limited, Cat #4319413E). The delta 2(-Delta Delta C(T)) method was used for quantitation of relative mRNA levels and fold induction.

[3] = tested on: Hepatitis C (HCV)-induced primary human hepatocytes (PHH); experiment: Inflammatory gene expression in HCV-induced primary human hepatocytes; type: cell-based
Excerpt: (§1) Methods Primary human hepatocytes (PHHs) and HepaRG™ cells were studied. The later are terminally differentiated hepatic cells derived from a human hepatic progenitor cell line that retains many characteristics of primary human hepatocytes were purchased from Thermo Fisher Scientific Inc. (MA, USA). PHHs were also obtained from Dr. David Geller, at the University of Pittsburgh, through the NIH funded Liver Tissue and Cell Distribution System (LTCDS) and maintained in Williams E Medium containing cell maintenance supplement reagents from Invitrogen (Carlsbad, Calif.). The HCV JFH strain was used in cell culture experiments at an M.O.I. of 0.5-1. […] In other experiments TxpIC at 500 ng/ml were added to the cells. This chemical replicates a viral induced inflammation and therefore it can be used in different cell types also when hepatitis C infection is difficult to induce. […] Li, K. (2012). Hepatology, 55: 666-675. For analysis of endogenous mRNA levels, total RNA was isolated from cells using the RNeasy RNA extraction kit (Qiagen, Valencia, Calif.) and cDNA synthesis was performed using 0.5 μg of total RNA (Transcriptor First Strand cDNA Synthesis Kit, Roche, Basel, Switzerland). Fluorescence real-time PCR analysis was preformed using an ABI 7500 instrument (Applied Biosystems, Foster City, Calif.) and TaqMan gene expression assay (Applied Biosystems). Relative amounts of mRNA, determined using a FAM-Labeled TaqMan Probe, were normalized to the 18S ribosomal RNA levels in each PCR reaction using the eukaryotic 18S rRNA endogenous control from ABI (VIC/MGB Probe, Primer Limited, Cat #4319413E). The delta 2(-Delta Delta C(T)) method was used for quantitation of relative mRNA levels and fold induction.

[4] = tested on: TxpIC-induced primary human hepatocytes (PHH); experiment: Inflammatory gene expression in TxpIC-induced primary human hepatocytes; type: cell-based; conditions: for Tx pIC induced CxCl10 expression: as compared with sPIF; for Tx pIC induced RSAD2: sPIF 200 nM
Excerpt: as §1

Sequence	Effectiveness [1]	Kv flux 100% in nt (stimulus buffer only) [1] [%]	also measured
MVRIFPGSANKPSDD [PIF-pos2]	−17.02	117	–
MVRIIPGSANKPSDD [PIF-pos4]	−1.117	101.1	–
MVRIKPGSANKPSFD [PIF-pos10]	53.72	46.28	effect on RSAD2 compared with sPIF [2]: similar; suppression of CxCL10, IL28, CCL5 compared with sPIF ([2]; time dependent): more pronounced suppression than sPIF; HCV induced CXCL10 expression [3]: inhibit; HCV induced IL28 expression [3]: Inhibitory effect; INFa induced suppression of HCV [3]: potentiate; 500 ng/ml TpxIC induced CCL5 [4]: Inhibitory effect; Tx pIC induced CxCl10 expression [4]: inhibit; Tx pIC induced RSAD2 [4]: inhibit; K+ inhibition as compared with sPIF [1]: increased K+ inhibition as compared with sPIF
MVRIKPGSANKWSDD [PIF-pos9]	34.09	65.91	–
MVRIKPGSANWPSDD [PIF-pos8]	45.79	54.21	–
MVRIKPGSWNKPSDD [PIF-pos7]	−22.27	122.3	–
MVRIKPWSANKPSDD [PIF-pos6]	−20.45	120.5	–
MVRIKPYSANKPSDD [PIF-pos5]	22.81	77.19	–
MVRIWPGSANKPSDD [PIF-pos1]	47.8	52.2	–
MVRIYPGSANKPSDD [PIF-pos3]	52.05	47.95	HCV induced CXCL10 expression [3]: inhibit; INFa induced suppression of HCV [3]: potentiate; 500 ng/ml TpxIC induced CCL5 [4]: Inhibitory effect; Tx pIC induced CxCl10 expression [4]: inhibit; Tx pIC induced RSAD2 [4]: inhibit; K+ inhibition as compared with sPIF [1]: increased K+ inhibition as compared with sPIF
